Assay results taken from patent US9284319B2, “Heterocyclyl aminoimidazopyridazines” (BAYER INTELLECTUAL PROPERTY GMBH, priority 2011, dated 2016).

Tests used:
[1] = target: T1, human full-length MKNK1 (Homo sapiens (Human), UniProt Q9BUB5, T344D); assay: MKNK1 kinase assay (TR-FRET); type: biochemical; conditions: ATP 10 μM final; 15 min preincubation with enzyme
Description: MKNK1-inhibitory activity of compounds of the present invention was quantified employing the MKNK1 TR-FRET assay as described in the following paragraphs.
As substrate for the kinase reaction the biotinylated peptide biotin-Ahx-[…] (C-terminus in amide form) was used which can be purchased e.g. form the company Biosyntan (Berlin-Buch, Germany).
(§1) For the assay 50 nL of a 100 fold concentrated solution of the test compound in DMSO was pipetted into a black low volume 384 well microtiter plate (Greiner Bio-One, Frickenhausen, Germany), 2 μL of a solution of MKNK1 in aqueous assay buffer [50 mM HEPES pH 7.5, 5 mM magnesium chloride, 1.0 mM dithiothreitol, 0.005% (v/v) Nonidet-P40 (Sigma)] was added and the mixture was incubated for 15 min at 22° C. to allow pre-binding of the test compounds to the enzyme before the start of the kinase reaction. Then the kinase reaction was started by the addition of 3 μL of a solution of adenosine-tri-phosphate (ATP, 16.7 μM=>final conc. in the 5 μL assay volume is 10 μM) and substrate (0.1 μM=>final conc. in the 5 μL assay volume is 0.06 μM) in assay buffer and the resulting mixture was incubated for a reaction time of 45 min at 22° C. The concentration of MKNK1 was adjusted depending of the activity of the enzyme lot and was chosen appropriate to have the assay in the linear range, typical concentrations were in the range of 0.05 μg/mL. The reaction was stopped by the addition of 5 μL of a solution of TR-FRET detection reagents (5 nM streptavidine-XL665 [Cisbio Bioassays, Codolet, France] and 1 nM anti-ribosomal protein S6 (pSer236)-antibody from Invitrogen [#44921G] and 1 nM LANCE EU-W1024 labeled ProteinG [Perkin-Elmer, product no. AD0071]) in an aqueous EDTA-solution (100 mM EDTA, 0.1% (w/v) bovine serum albumin in 50 mM HEPES pH 7.5).
(§2) The resulting mixture was incubated for 1 h at 22° C. to allow the formation of complex between the phosphorylated biotinylated peptide and the detection reagents. Subsequently the amount of phosphorylated substrate was evaluated by measurement of the resonance energy transfer from the Eu-chelate to the streptavidine-XL. Therefore, the fluorescence emissions at 620 nm and 665 nm after excitation at 350 nm were measured in a TR-FRET reader, e.g. a Rubystar (BMG Labtechnologies, Offenburg, Germany) or a Viewlux (Perkin-Elmer). The ratio of the emissions at 665 nm and at 622 nm was taken as the measure for the amount of phosphorylated substrate.

[2] = target: T1, human full-length MKNK1; assay: MKNK1 kinase high ATP assay (TR-FRET); type: biochemical; conditions: ATP 2 mM final; 15 min preincubation with enzyme
Description: MKNK1 Kinase High ATP Assay
MKNK1-inhibitory activity at high ATP of compounds of the present invention after their preincubation with MKNK1 was quantified employing the TR-FRET-based MKNK1 high ATP assay as described in the following paragraphs.
As substrate for the kinase reaction the biotinylated peptide biotin-Ahx-[…] (C-terminus in amide form) was used, which can be purchased e.g. from the company Biosyntan (Berlin-Buch, Germany).
as §1, with “3.3 mM=>final” for “16.7 μM=>final”, “2 mM)” for “10 μM)”, “30” for “45”, “0.003” for “0.05”
as §2

T1 sequence (Q9BUB5 other isoform, or with tags, fused parts or gaps T344D): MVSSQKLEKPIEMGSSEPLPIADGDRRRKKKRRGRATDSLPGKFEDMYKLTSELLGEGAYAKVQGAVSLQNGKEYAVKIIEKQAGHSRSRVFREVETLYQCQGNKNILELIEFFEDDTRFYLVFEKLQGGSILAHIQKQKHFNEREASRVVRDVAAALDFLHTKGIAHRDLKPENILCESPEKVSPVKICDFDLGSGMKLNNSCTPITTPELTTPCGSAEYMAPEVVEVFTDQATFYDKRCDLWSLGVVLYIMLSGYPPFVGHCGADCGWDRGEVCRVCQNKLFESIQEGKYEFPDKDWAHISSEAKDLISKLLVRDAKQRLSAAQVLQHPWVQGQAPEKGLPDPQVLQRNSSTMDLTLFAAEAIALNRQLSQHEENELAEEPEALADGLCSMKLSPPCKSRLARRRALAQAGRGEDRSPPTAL

OC[C@@H]1CCCN1c1ccc2ncc(-c3cc4ccccc4o3)n2n1 [Example 1, {(2S)-1-[3-(1-Benzofuran-2-yl)imidazo[1,2-b]pyridazin-6-yl]pyrrolidin-2-yl}methanol]
IC50 [1]: 19 nM
IC50 [2]: 7 nM

OC[C@H]1CCCN1c1ccc2ncc(-c3cc4ccccc4o3)n2n1 [Example 2, {(2R)-1-[3-(1-Benzofuran-2-yl)imidazo-[1,2-b]-pyridazin-6-yl]pyrrolidin-2-yl}-methanol]
IC50 [1]: 42 nM
IC50 [2]: 22 nM

OC1CCN(c2ccc3ncc(-c4cc5ccccc5o4)n3n2)C1 (stereo not drawn) [Example 3, 1-[3-(1-Benzofuran-2-yl)imidazo[1,2-b]pyridazin-6-yl]pyrrolidin-3-ol]
IC50 [1]: 17 nM
IC50 [2]: 6 nM

O[C@@H]1CCCN(c2ccc3ncc(-c4cc5ccccc5o4)n3n2)C1 [Example 4, (3R)-1-[3-(1-Benzofuran-2-yl)imidazo[1,2-b]pyridazin-6-yl]piperidin-3-ol]
IC50 [1]: 44 nM
IC50 [2]: 15 nM

OCC1CCCN(c2ccc3ncc(-c4cc5ccccc5o4)n3n2)C1 (stereo not drawn) [Example 5, {1-[3-(1-Benzofuran-2-yl)imidazo[1,2-b]pyridazin-6-yl]piperidin-3-yl}methanol]
IC50 [1]: 37 nM
IC50 [2]: 13 nM

OC1CN(c2ccc3ncc(-c4cc5ccccc5o4)n3n2)C1 [Example 6, 1-[3-(1-Benzofuran-2-yl)imidazo[1,2-b]pyridazin-6-yl]azetidin-3-ol]
IC50 [1]: 33 nM
IC50 [2]: 12 nM

OC[C@@H]1CCN(c2ccc3ncc(-c4cc5ccccc5o4)n3n2)C1 [Example 7, {(3R)-1-[3-(1-Benzofuran-2-yl)imidazo[1,2-b]pyridazin-6-yl]pyrrolidin-3-yl}methanol]
IC50 [1]: 14 nM
IC50 [2]: 4 nM

O[C@H]1CCN(c2ccc3ncc(-c4cc5ccccc5o4)n3n2)C1 [Example 8, (3S)-1-[3-(1-Benzofuran-2-yl)imidazo[1,2-b]pyridazin-6-yl]pyrrolidin-3-ol]
IC50 [1]: 19 nM
IC50 [2]: 15 nM

O[C@@H]1CCN(c2ccc3ncc(-c4cc5ccccc5o4)n3n2)C1 [Example 9, (3R)-1-[3-(1-Benzofuran-2-yl)imidazo[1,2-b]pyridazin-6-yl]pyrrolidin-3-ol]
IC50 [1]: 15 nM

OC[C@H]1CCN(c2ccc3ncc(-c4cc5ccccc5o4)n3n2)C1 [Example 10, {(3S)-1-[3-(1-Benzofuran-2-yl)imidazo[1,2-b]pyridazin-6-yl]pyrrolidin-3-yl}methanol]
IC50 [1]: 20 nM
